How the values were obtained:
Thrombin = target: T1, Thrombin (Homo sapiens, UniProt P00734); test: Thrombin inhibition, spectrophotometric assay (p-nitroaniline liberation); type: biochemical; conditions: thrombin from human plasma; substrate Sarcosyl-Proline-Arginine-p-nitroanilide; 0.1M Tris pH 7.4; 30° C.
T1 construct: Thrombin is obtained from human plasma; purchased Sigma Chemical Co; host or cells: human plasma
Method: Chem., 329, p. 278 (1962), in which the liberation of p-nitroaniline is determined by measuring the increase in absorbance at 405 nm (ε=10800M^-1 cm^-1). Thrombin is obtained from human plasma, available from Sigma Chemical Co. wherein the activity is expressed in NIH units. One vial contains 290 units (specific activity=3000 units per mg of protein) as a lyophilized powder which is reconstituted with 1 mL of water. The substrate is the chromophoric peptide, Sarcosyl-Proline-Arginine-p-nitroanilide (Km =0.9 mM), the buffer is 0.1M Tris, pH 7.4 (final volume 1 mL) and the assay is carried out at a temperature of about 30° C. with 0.029 NIH units of enzyme required per assay. Kinetic characterization of immediate inhibitors is by means of the Dixon plot, whereas the characterization of slow- and/or tight-binding inhibitors uses data analysis techniques reviewed by Williams and Morrison. Kinetic characterization of time dependent inhibitors is by means of a Kitz & Wilson plot, Kitz R. and Wilson I. B., J. Biol. Chem., 237, 3245-3249 (1962).

clotting time (aPTT) = test: Coagulation assay: activated partial thromboplastin time (aPTT), concentration doubling the clotting time; parameters: species or system rat; conditions: calculated by simple linear regression
Method: Male Sprague-Dawley rats (200-450 gm) purchased from Harlan Sprague Dawley, Inc., (Indianapolis, Ind. 46229) were used in these studies.
Activated partial thromboplastin time (aPTT) determinations are carried out using the reagents and methods of Dade Diagnostics, Inc. (Aguada, Puerto Rico 00602). All clotting times were measured semiautomatically using a MLA-Electra 750, MLA, Inc. (Pleasantville, N.Y. 10570). The concentration required for doubling the clotting time (ID2) was calculated using simple linear regression.

Trypsin = target: T2, Trypsin (Sus scrofa, UniProt P00761); test: Trypsin inhibition, spectrophotometric assay (p-nitroaniline liberation); type: biochemical; conditions: trypsin from porcine pancreas; substrate Benzoyl-Arginine-p-nitroanilide; 0.05M Tris, 0.05M CaCl2, pH 7.8; 30° C.
T2 construct: Trypsin is obtained from porcine pancreas; purchased Sigma Chemical Co; host or cells: porcine pancreas
Method: Chem., 329, p. 278 (1962), immediately described above. Trypsin is obtained from porcine pancreas, available from Sigma Chemical Co. wherein the activity is expressed in Sigma units. The specific activity of the trypsin source is 15900 Sigma units per mg of protein where one unit is defined as the amount of enzyme that gives an increase in absorbance at 253 nm of 0.001 per min as the result of the hydrolysis of Benzoyl-Arginine-Ethylester, at pH 7.6 and 25° C. The substrate is the peptide Benzoyl-Arginine-p-nitroanilide (KM =[…]), the buffer is 0.05M Tris, 0.05M CaCl2, pH 7.8 (final volume 1 mL) and the assay is carried out at a temperature of 30° C. with 8 Sigma units of enzyme required per assay. Kinetic characterization of immediate inhibitors is by means of the Dixon plot, whereas the characterization of slow- and/or tight-binding inhibitors uses data analysis techniques reviewed by Williams and Morrison. Kinetic characterization of time dependent inhibitors is by means of a Kitz & Wilson plot.

aPTT in rat plasma = test: In vivo measurement of aPTT in rat plasma after injection; conditions: n = 2
Text: Activated partial thromboplastin time (aPTT) measurements were made in rat plasma at various times after injecting the animals with TFA·HNMe-D-Phe-L-Pro-D,L-Trp--CF2 CF3. Male Sprague-Dawley rats (200-450 g) purchased from Harlan Sprague Dawley, Inc., (Indianapolis, Ind. 46229) are used in these studies. […]

T2 sequence (P00761 9-231): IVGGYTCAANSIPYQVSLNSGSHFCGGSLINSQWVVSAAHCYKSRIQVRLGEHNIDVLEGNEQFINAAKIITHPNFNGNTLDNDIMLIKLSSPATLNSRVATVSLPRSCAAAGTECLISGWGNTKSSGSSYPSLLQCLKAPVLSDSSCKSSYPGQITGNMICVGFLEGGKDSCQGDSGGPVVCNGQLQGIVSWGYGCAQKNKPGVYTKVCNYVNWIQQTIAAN

With `CN[C@H](Cc1ccccc1)C(=O)N1CCC[C@H]1C(=O)NC(Cc1c[nH]c2ccccc12)C(=O)C(F)(F)C(F)(F)F.O=C(O)C(F)(F)F` (stereo partly drawn) [TFA.HNMe-D-Phe-L-Pro-D,L-Trp-CF2 CF3, L-Prolinamide, N-methyl-D-phenylalanyl-N-[3,3,4,4,4-pentafluoro-1-(1H-indol-3-ylmethyl)-2-oxobutyl]-, mono(trifluoroacetate)] the Ki (Thrombin) was 0.45 µM, the “ID2 (concentration required for doubling the clotting time)” value (clotting time (aPTT)) was 44.9 µM and the Ki (Trypsin) was roughly 100 µM. It also gave an aPTT (aPTT in rat plasma; 5 mg/kg i.v., 0 min. after dosing) of 21.2 s, an aPTT (aPTT in rat plasma; 5 mg/kg i.v., 5 min. after dosing) of 19.0 s and an aPTT (aPTT in rat plasma; 5 mg/kg i.v., 15 min. after dosing) of 22.7 s. For the same molecule, the aPTT (aPTT in rat plasma; 5 mg/kg i.v., 30 min. after dosing) was 18.6 s, the aPTT (aPTT in rat plasma; 5 mg/kg i.v., 60 min. after dosing) was 17.6 s and the aPTT (aPTT in rat plasma; 10 mg/kg i.v., 0 min. after dosing) was 18.8 s. The aPTT (aPTT in rat plasma; 10 mg/kg i.v., 5 min. after dosing) was 17.4 s, the aPTT (aPTT in rat plasma; 10 mg/kg i.v., 15 min. after dosing) was 18.0 s and the aPTT (aPTT in rat plasma; 10 mg/kg i.v., 30 min. after dosing) was 15.7 s. It also gave an aPTT (aPTT in rat plasma; 10 mg/kg i.v., 60 min. after dosing) of 12.6 s, an aPTT (aPTT in rat plasma; 30 mg/kg i.p., 0 min. after dosing) of 19.2 s and an aPTT (aPTT in rat plasma; 30 mg/kg i.p., 5 min. after dosing) of 20.8 s. The aPTT (aPTT in rat plasma; 30 mg/kg i.p., 15 min. after dosing) was 19.2 s, the aPTT (aPTT in rat plasma; 30 mg/kg i.p., 30 min. after dosing) was 19.4 s and the aPTT (aPTT in rat plasma; 30 mg/kg i.p., 60 min. after dosing) was 18.7 s.
